Test results as given in publication PMC12367851, “In vitro CB1 receptor activity of halogenated indazole synthetic cannabinoid receptor agonists” (Archives of Toxicology, 2025).

Target: human CB1 receptor (Homo sapiens, UniProt P21554)
Assay: AequoScreen CB1 assay (intracellular Ca2+ release, CHO-K1 cells, apoaequorin/Gα16)
Conditions: for Emax: CHO-K1, read-out: Efficacy (% of JWH-018) Emax; for Efficacy (Emax) Mean Diff: Brown-Forsythe and Welch ANOVA; for fold less potent than the butyl (ADB-5′Br-BUTINACA): brominated ADB SCRAs with different tails
[1] = Compound 1 vs Compound 2 = MDMB-5’Cl-BUTINACA
[2] = Compound 1 vs Compound 2 = ADB-4en-5’Br-PINACA
[3] = Compound 1 vs Compound 2 = ADB-5’Br-PINACA
[4] = Compound 1 vs Compound 2 = ADB-5’F-BUTINACA
[5] = Compound 1 vs Compound 2 = MDMB-5’F-BUTINACA

Chain of human CB1 receptor (P21554 whole entry): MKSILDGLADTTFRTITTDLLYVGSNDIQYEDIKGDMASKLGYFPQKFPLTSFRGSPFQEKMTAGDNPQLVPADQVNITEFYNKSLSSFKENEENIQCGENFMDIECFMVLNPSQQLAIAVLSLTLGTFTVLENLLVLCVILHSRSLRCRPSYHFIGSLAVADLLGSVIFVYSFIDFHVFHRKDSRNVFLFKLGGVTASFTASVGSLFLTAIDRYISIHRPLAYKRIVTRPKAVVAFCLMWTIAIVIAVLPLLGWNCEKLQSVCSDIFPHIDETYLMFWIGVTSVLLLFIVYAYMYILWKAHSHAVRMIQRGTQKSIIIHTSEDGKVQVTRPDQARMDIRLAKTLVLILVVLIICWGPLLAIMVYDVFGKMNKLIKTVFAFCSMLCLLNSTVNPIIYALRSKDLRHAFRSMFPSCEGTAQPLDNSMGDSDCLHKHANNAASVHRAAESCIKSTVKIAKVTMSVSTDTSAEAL

C=CCCCn1nc(C(=O)NC(C(=O)OC)C(C)(C)C)c2cc(Br)ccc21 (centres unmarked) [MDMB-4en-5′Br-PINACA, methyl 2-{[5-bromo-1-(pent-4-en-1-yl)−1H-indazole-3-carbonyl]amino}−3,3-dimethylbutanoate]
EC50: 44.6 nM | Emax: 120% | Efficacy (Emax) Mean Diff (Compound 1 vs Compound 2 = MDMB-4en-PINACA): 11.19 | fold less potent than MDMB-4en-PINACA (EC50 ratio vs non-halogenated analog MDMB-4en-PINACA): 2.5 fold | fold difference of each other (potency) (brominated SCRAs with pent-4-enyl, butyl and pentyl tails): ≤ 1.4 fold

COC(=O)C(NC(=O)c1n[nH]c2ccccc12)C(C)(C)C (centres unmarked) [MDMB-INACA, reference compound]
EC50: 3690 nM | Emax: 112%

CCCCn1nc(C(=O)NC(C(=O)OC)C(C)(C)C)c2cc(F)ccc21 (centres unmarked) [MDMB-5′F-BUTINACA]
EC50: 5.75 nM | Emax: 111% | Efficacy (Emax) Mean Diff [1]: 1.27 | Efficacy (Emax) Mean Diff (Compound 1 vs Compound 2 = MDMB-BUTINACA): -10.05

CC(C)(C)C(NC(=O)c1n[nH]c2ccc(Br)cc12)C(N)=O (centres unmarked) [ADB-5′Br-INACA, N-[1-amino-3,3-dimethyl-1-oxobutan-2-yl]−5-bromo-1H-indazole-3-carboxamide]
EC50: 2290 nM | Emax: 111% | Efficacy (Emax) Mean Diff [2]: -0.21 | Efficacy (Emax) Mean Diff (Compound 1 vs Compound 2 = ADB-5’Br-BUTINACA): 1.04 | Efficacy (Emax) Mean Diff (Compound 1 vs Compound 2 = ADB-5’Br-FUBINACA): -1.25 | Efficacy (Emax) Mean Diff [3]: 2.88 | fold weaker in potency than JWH-018 (EC50 ratio vs JWH-018): 100 fold | fold less potent than the butyl (ADB-5′Br-BUTINACA) (EC50 ratio): 127 fold

CCCCn1nc(C(=O)NC(C(N)=O)C(C)C)c2cc(F)ccc21 (centres unmarked) [AB-5′F-BUTINACA]
EC50: 18.7 nM | Emax: 107% | Efficacy (Emax) Mean Diff (Compound 1 vs Compound 2 = AB-5’Cl-BUTINACA): -4.99 | Efficacy (Emax) Mean Diff [4]: -6.01 | Efficacy (Emax) Mean Diff [5]: -4.12 | Efficacy (Emax) Mean Diff (Compound 1 vs Compound 2 = MMB-5’F-BUTINACA): 0.24

CCCCn1nc(C(=O)NC(C(=O)OC)C(C)C)c2cc(F)ccc21 (centres unmarked) [MMB-5′F-BUTINACA]
EC50: 26.4 nM | Emax: 107% | Efficacy (Emax) Mean Diff [4]: -6.25 | Efficacy (Emax) Mean Diff [5]: -4.36 | Efficacy (Emax) Mean Diff (Compound 1 vs Compound 2 = MMB-5’Cl-BUTINACA): -2.49

COC(=O)C(NC(=O)c1n[nH]c2ccc(C)cc12)C(C)(C)C (centres unmarked) [MDMB-5′Me-INACA, methyl 3,3-dimethyl-2-[(5-methyl-1H-indazole-3-carbonyl)amino]butanoate]
EC50: 1370 nM | Emax: 113% | Efficacy (Emax) Mean Diff (Compound 1 vs Compound 2 = MDMB-5’Br-INACA): 3.46 | Efficacy (Emax) Mean Diff (Compound 1 vs Compound 2 = MDMB-INACA): 1.15 | fold more potent than MDMB-5′Br-INACA (EC50 ratio, tail-less SCRAs): 1.6 fold | fold more potent than MDMB-INACA (EC50 ratio, tail-less SCRAs): 2.7 fold

CCCCCCCCCCn1nc(C(=O)NC(C(N)=O)C(C)(C)C)c2cc(Br)ccc21 (centres unmarked) [N-(1-amino-3,3-dimethyl-1-oxobutan-2-yl)−5-bromo-1-decyl-1H-indazole-3-carboxamide]
Potency (EC50, nM) (three-parameter logistic fit, n ≥ 3, triplicate, racemic standards): not even reaching saturation

CC(C)(C)C(NC(=O)c1nn(Cc2ccc(F)cc2)c2ccc(Br)cc12)C(N)=O (centres unmarked) [ADB-5′Br-FUBINACA]
EC50: 42.1 nM | Emax: 112% | Efficacy (Emax) Mean Diff [2]: 1.04 | Efficacy (Emax) Mean Diff [3]: 4.13 | fold less potent than the butyl (ADB-5′Br-BUTINACA) (EC50 ratio): 2.3 fold

CCCCn1nc(C(=O)NC(C(N)=O)C(C)(C)C)c2cc(Cl)ccc21 (centres unmarked) [ADB-5′Cl-BUTINACA]
EC50: 30.1 nM | Emax: 113% | Efficacy (Emax) Mean Diff (Compound 1 vs Compound 2 = ADB-BUTINACA): -12.82 | Efficacy (Emax) Mean Diff [1]: 2.80 | fold less potent than ADB-BUTINACA (EC50 ratio vs non-halogenated analog ADB-BUTINACA): 1.4 fold
